Experimental data reported in patent US10662184B2, “Benzenesulfonamide compounds and their use as therapeutic agents” (Xenon Pharmaceuticals Inc., priority 2016, dated 2020).
Where two headings read alike, the source gives them in different places.

Experiments:
[1] = target: human NaV1.6 (Homo sapiens (Human), UniProt Q9UQD0); experiment: Sodium Influx Assay (Flux), NaV1.6
[2] = target: human NaV1.5 (Homo sapiens (Human), UniProt Q14524); experiment: cell-based
[3] = target: human NaV1.1 (Homo sapiens (Human), UniProt P35498); experiment: Sodium Influx Assay (Flux), NaV1.1; assay type: cell-based; conditions: Trex HEK293 cells, ANG2 dye; arithmetic mean
[4] = target: human NaV1.6 (SCN8A) (Homo sapiens (Human), UniProt Q9UQD0); experiment: Electrophysiological Assay (EP, patch voltage clamp), NaV1.6; assay type: cell-based; conditions: HEK-293 cells, whole-cell patch clamp, inactivated state; arithmetic mean
Description: Patch voltage clamp electrophysiology allows for the direct measurement and quantification of block of voltage-gated sodium channels (Nav's), and allows the determination of the time- and voltage-dependence of block which has been interpreted as differential binding to the resting, open, and inactivated states of the sodium channel (Hille, B., Journal of General Physiology (1977), 69: 497-515).
Nav1.1, Nav1.5 and Nav1.6 cDNAs (NM_001165964 (SCN1A), NM_000335 (SCN5A) and NM_014191 (SCN8A), respectively) were stably expressed in HEK-293 cells.
Sodium currents were measured using the patch clamp technique in the whole-cell configuration using either a PatchXpress automated voltage clamp or manually using an Axopatch 200B (Axon Instruments) or Model 2400 (A-M systems) amplifier. […] Control sodium currents were measured in 0.5% DMSO. […]
Currents were recorded at 40 kHz sampling frequency, filtered at […], and stored using a Digidata-1322A analogue/digital interface with the pClamp software (Axon Instruments). […]
The membrane potential was maintained at a voltage where inactivation of the channel is complete. The voltage is then stepped back to a very negative (Vhold=−150 mV) voltage for 20 ms and then a test pulse is applied to quantify the compound block. […]

[5] = target: human NaV1.1 (SCN1A) (Homo sapiens (Human), UniProt P35498); experiment: Electrophysiological Assay (EP, patch voltage clamp), NaV1.1; assay type: cell-based; conditions: HEK-293 cells, whole-cell patch clamp, inactivated state; arithmetic mean
Experimental: Sodium currents were measured using the patch clamp technique in the whole-cell configuration using either a PatchXpress automated voltage clamp or manually using an Axopatch 200B (Axon Instruments) or Model 2400 (A-M systems) amplifier. […] In some studies, the external sodium was reduced by equimolar replacement with choline. […] All recordings were performed at ambient temperature in a bath chamber with a volume of 150 μL. Control sodium currents were measured in 0.5% DMSO. Controls and representative compounds of the invention were applied to the recording chamber through a 4-pinch or 8-pinch valve bath perfusion system manufactured by ALA Scientific Instruments.
Series resistance compensation was applied (60-80%). […] All statistics in this study are given as mean±SD.
The membrane potential was maintained at a voltage where inactivation of the channel is complete. The voltage is then stepped back to a very negative (Vhold=−150 mV) voltage for 20 ms and then a test pulse is applied to quantify the compound block. […] The percent decrease in sodium current following wash-on of compound was taken as the percent block of sodium channels.

[6] = read-out: Flux NaV1.6 IC50, Trex HEK293 cells, ANG2 dye, arithmetic mean

Chain of human NaV1.5 (Q14524 other isoform, or with tags, fused parts or gaps): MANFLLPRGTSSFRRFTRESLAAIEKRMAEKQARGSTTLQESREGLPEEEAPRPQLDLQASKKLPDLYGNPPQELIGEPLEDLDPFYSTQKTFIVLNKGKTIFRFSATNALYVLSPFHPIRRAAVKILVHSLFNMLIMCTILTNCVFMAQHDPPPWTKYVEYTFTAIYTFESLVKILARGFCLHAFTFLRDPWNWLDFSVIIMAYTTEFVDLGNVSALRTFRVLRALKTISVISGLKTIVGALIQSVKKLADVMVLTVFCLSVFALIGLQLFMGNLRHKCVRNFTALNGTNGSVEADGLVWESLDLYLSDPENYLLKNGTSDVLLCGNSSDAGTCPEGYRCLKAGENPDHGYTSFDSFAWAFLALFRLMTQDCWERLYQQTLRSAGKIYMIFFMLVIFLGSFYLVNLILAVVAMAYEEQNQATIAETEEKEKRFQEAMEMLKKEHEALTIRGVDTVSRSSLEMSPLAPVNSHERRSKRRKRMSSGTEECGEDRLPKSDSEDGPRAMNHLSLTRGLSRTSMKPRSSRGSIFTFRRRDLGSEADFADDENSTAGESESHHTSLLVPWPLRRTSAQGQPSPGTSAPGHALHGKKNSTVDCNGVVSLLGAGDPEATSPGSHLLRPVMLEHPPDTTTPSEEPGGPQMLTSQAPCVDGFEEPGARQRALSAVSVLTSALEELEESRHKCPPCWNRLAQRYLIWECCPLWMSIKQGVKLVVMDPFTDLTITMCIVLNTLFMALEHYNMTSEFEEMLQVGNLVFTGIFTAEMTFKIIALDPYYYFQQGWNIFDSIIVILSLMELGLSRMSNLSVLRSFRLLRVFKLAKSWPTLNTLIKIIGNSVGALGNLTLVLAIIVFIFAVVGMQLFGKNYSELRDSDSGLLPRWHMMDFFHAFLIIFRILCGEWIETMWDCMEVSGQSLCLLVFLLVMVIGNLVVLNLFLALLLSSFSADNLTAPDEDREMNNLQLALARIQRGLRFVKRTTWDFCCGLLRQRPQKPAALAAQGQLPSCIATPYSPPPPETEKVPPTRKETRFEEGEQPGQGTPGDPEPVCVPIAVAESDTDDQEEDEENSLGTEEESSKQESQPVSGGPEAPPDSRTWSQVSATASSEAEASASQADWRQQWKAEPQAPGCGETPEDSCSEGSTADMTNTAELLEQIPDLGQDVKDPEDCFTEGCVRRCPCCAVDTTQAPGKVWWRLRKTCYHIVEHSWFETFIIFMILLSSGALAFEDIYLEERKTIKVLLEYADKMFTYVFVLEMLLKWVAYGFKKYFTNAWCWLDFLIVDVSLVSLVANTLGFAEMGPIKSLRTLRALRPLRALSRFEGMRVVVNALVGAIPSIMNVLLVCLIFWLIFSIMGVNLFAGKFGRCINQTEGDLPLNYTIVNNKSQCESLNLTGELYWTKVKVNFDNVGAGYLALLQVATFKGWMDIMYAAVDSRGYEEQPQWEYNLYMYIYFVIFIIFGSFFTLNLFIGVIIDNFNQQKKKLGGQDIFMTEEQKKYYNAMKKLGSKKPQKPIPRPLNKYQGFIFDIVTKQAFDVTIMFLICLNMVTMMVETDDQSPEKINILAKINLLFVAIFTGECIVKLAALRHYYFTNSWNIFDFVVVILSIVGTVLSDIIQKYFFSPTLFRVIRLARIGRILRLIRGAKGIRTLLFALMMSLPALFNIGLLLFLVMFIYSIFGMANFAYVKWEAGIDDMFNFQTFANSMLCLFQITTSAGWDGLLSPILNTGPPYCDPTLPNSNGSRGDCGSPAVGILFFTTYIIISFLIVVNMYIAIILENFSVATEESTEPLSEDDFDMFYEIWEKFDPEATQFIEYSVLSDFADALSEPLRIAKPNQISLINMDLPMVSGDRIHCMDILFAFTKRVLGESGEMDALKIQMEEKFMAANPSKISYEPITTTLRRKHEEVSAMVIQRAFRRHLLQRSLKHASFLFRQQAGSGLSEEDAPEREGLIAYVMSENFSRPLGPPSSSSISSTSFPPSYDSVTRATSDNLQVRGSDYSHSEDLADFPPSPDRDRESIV
Chain of human NaV1.6 (SCN8A) (Q9UQD0 whole entry): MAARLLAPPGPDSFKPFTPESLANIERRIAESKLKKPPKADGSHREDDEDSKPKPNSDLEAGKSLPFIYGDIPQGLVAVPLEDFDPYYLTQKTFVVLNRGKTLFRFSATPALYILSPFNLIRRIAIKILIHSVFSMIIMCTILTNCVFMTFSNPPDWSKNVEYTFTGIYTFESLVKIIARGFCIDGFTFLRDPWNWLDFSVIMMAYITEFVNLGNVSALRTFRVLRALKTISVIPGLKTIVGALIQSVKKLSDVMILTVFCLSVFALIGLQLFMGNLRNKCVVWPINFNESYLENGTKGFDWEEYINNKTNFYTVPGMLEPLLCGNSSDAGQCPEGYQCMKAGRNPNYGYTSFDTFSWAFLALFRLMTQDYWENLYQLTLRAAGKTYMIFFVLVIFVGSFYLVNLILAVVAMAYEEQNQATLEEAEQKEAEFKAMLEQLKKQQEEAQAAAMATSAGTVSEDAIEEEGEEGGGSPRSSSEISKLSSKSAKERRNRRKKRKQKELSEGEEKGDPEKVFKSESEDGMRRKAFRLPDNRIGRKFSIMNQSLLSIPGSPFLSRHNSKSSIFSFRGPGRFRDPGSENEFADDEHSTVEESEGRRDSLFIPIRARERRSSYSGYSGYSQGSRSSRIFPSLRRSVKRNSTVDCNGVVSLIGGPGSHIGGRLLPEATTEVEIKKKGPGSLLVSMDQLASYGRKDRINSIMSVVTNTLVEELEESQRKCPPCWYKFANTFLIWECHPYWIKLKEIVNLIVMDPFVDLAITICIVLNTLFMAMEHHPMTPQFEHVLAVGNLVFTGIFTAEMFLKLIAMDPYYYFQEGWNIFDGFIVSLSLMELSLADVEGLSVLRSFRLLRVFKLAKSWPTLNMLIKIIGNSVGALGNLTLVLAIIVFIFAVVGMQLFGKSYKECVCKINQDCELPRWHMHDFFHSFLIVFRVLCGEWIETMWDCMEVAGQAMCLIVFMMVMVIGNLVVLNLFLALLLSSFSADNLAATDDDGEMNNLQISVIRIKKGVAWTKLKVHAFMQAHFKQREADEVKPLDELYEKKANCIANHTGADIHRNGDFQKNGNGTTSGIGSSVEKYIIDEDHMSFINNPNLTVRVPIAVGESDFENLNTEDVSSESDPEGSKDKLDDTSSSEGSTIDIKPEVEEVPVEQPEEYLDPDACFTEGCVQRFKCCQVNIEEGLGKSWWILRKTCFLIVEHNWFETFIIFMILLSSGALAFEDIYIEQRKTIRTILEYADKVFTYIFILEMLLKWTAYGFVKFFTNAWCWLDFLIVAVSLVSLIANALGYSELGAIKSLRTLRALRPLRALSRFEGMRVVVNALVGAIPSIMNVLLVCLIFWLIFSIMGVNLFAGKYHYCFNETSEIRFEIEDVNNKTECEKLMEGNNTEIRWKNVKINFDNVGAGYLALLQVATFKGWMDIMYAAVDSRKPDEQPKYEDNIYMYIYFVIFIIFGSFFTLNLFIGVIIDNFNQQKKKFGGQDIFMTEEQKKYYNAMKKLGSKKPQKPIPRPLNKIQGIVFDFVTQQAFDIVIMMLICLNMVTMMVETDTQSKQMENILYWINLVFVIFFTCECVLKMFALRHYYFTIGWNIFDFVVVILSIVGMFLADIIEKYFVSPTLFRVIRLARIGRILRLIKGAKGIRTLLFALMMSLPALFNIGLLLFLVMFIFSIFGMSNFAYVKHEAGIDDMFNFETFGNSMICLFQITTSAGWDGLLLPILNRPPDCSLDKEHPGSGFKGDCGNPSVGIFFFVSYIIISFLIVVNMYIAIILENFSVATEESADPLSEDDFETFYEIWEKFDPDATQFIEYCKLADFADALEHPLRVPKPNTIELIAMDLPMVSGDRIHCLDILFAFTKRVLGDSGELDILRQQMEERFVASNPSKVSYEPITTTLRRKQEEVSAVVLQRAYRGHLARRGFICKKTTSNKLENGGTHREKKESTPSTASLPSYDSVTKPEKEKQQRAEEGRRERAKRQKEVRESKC

| Compound | IC50 [1] | IC50 [2] | IC50 [3] | IC50 [4] | IC50 [5] | IC50 [1, 6] |
| --- | --- | --- | --- | --- | --- | --- |
| Cc1cccc(CN2CC[C@@H](Oc3ccc(S(=O)(=O)Nc4nccs4)cc3Cl)[C@H](C)C2)c1 (relative stereo) [Example 9B, 3-chloro-4-((trans-3-methyl-1-(3-methylbenzyl)piperidin-4-yl)oxy)-N-(thiazol-2-yl)benzenesulfonamide] | 0.874 µM | 8.75 µM | – | – | – | – |
| C[C@@H](c1ccccc1)N1CC[C@H](N(C)c2cc(F)c(S(=O)(=O)Nc3cccc(F)n3)cc2Cl)C1 [Example 43, 2,2,2-trifluoroacetate] | 1.89 µM | 17.1 µM | 7.87 µM | – | – | – |
| C[C@H]1C[C@@H](Oc2ccc(S(=O)(=O)Nc3nccs3)cc2Cl)CCN1Cc1ccccc1 (relative stereo) [Example 72, 4-((cis-1-benzyl-2-methylpiperidin-4-yl)oxy)-3-chloro-N-(thiazol-2-yl)benzenesulfonamide] | 6.07 µM | 13.5 µM | 6.81 µM | – | – | – |
| C[C@H]1CN(Cc2ccccc2)C[C@@H]1Nc1ccc(S(=O)(=O)Nc2nccs2)cc1Cl (relative stereo) [Example 74, 4-((trans-1-benzyl-4-methylpyrrolidin-3-yl)amino)-3-chloro-N-(thiazol-2-yl)benzenesulfonamide] | 0.167 µM | 8.67 µM | 1.54 µM | 0.025 µM | 1.03 µM | – |
| O=S(=O)(Nc1cscn1)c1ccc(O[C@@H]2C[C@H]3CC[C@@H](C2)N3Cc2cccc(C(F)F)c2)c(Cl)c1 [Example 256, 3-chloro-4-(((1R,3s,5S)-8-(3-(difluoromethyl)benzyl)-8-azabicyclo[3.2.1]octan-3-yl)oxy)-N-(thiazol-4-yl)benzenesulfonamide] | – | – | 4.41 µM | – | – | 3.31 µM |
| C[C@@H]1[C@H](N(C)c2cc(F)c(S(=O)(=O)Nc3cscn3)cc2Cl)CCN1Cc1ccccc1 (racemic) [Example 309, rac-4-(((2R,3R)-1-benzyl-2-methylpyrrolidin-3-yl)(methyl)amino)-5-chloro-2-fluoro-N-(thiazol-4-yl)benzenesulfonamide] | – | – | 8.44 µM | – | – | 6.86 µM |
| Cc1cccc(CN2CC[C@H](Oc3ccc(S(=O)(=O)Nc4nccs4)cc3Cl)[C@H](C)C2)c1 (relative stereo) [Example 9A, 3-chloro-4-((cis-3-methyl-1-(3-methylbenzyl)piperidin-4-yl)oxy)-N-(thiazol-2-yl)benzenesulfonamide] | 1.75 µM | – | – | – | – | – |
| C[C@@H]1C[C@@H](Oc2ccc(S(=O)(=O)Nc3nccs3)cc2Cl)CCN1Cc1ccccc1 (relative stereo) [Example 73, 4-((trans-1-benzyl-2-methylpiperidin-4-yl)oxy)-3-chloro-N-(thiazol-2-yl)benzenesulfonamide] | 1.88 µM | 13.1 µM | 5.85 µM | – | – | – |
| C[C@@H]1CN(Cc2ccccc2)C[C@@H]1Nc1ccc(S(=O)(=O)Nc2nccs2)cc1Cl (relative stereo) [Example 75, 4-((cis-1-benzyl-4-methylpyrrolidin-3-yl)amino)-3-chloro-N-(thiazol-2-yl)benzenesulfonamide] | 0.661 µM | 8.99 µM | 4.19 µM | – | – | – |
